Experiment [1] has as its target human glucagon receptor (hGCGR) (Homo sapiens, UniProt P47871). The experiment in a line: cAMP production (HTRF) in CHO cells expressing hGCGR. In kind it is cell-based. Also noted: expressed in transfected cells. The conditions noted are these: cAMP in CHO hGCGR cells, geometric mean, read-out: hGluc-R EC50. The method, boiled down:
(§1)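 Read-out: HTRF cAMP (anti-cAMP cryptate donor, cAMP-d2 acceptor in conjugate/lysis buffer), converted to % Delta F and fitted by 4-parameter logistic for EC50. Cell densities were 1×10^5 cells/mL (hGLP-1R) or 2×10^5 cells/mL (hGCGR). Stimulation lasted 30 min at room temperature.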

Experiment [2] has as its target human GLP-1 receptor (hGLP-1R) (Homo sapiens, UniProt P43220). The experiment in a line: cAMP production (HTRF) in CHO cells expressing hGLP-1R. Type of experiment: cell-based. Set-up: expressed in transfected cells. To be noted: for pEC50: cAMP in CHO hGLP-1R cells, geometric mean, read-out: hGLP-1R EC50; for % Relative Potency Ratio: % GLP-1R activity relative to GLP-1 / % GlucR activity relative to glucagon. The method, boiled down: as §1
On the technique in general: Changes in cAMP serve as a functional read-out for many G protein-coupled receptors.

The mark [3] stands for this setting: Table 6, peptides modified at position 17.
Where [4] appears, read: Table 7, peptides modified at position 20.

pEC50: −log10 of the molar value. Read-outs that look alike come from different tables or passages of the source. Starred links: 1 amine or outer side, 2 acyl side, 3 side chain; linkers in the order of their positions; H or OH if unused. Non-standard residues stand in square brackets, D forms with d. Residues, ends and D or L forms follow the SMILES beside them. Groups on a side chain read outwards from the residue. *: point of attachment. C20 diacid = O=C(O)CCCCCCCCCCCCCCCCCCC(=O)*; C18 diacid = O=C(O)CCCCCCCCCCCCCCCCC(=O)*; γGlu = O=C(O)[C@H](CCC(=O)[*:2])N[*:1]; Stearoyl = CCCCCCCCCCCCCCCCCC(=O)*; Palmitoyl = CCCCCCCCCCCCCCCC(=O)*; αMeF = C[C@](N)(Cc1ccccc1)C(=O)O; PEG2 = NCCOCCOCCC(=O)O; AEEA = NCCOCCOCC(=O)O; Aib = CC(C)(N)C(=O)O Bounds are passed on as bounds.

Chain of human GLP-1 receptor (hGLP-1R) (P43220 24-463): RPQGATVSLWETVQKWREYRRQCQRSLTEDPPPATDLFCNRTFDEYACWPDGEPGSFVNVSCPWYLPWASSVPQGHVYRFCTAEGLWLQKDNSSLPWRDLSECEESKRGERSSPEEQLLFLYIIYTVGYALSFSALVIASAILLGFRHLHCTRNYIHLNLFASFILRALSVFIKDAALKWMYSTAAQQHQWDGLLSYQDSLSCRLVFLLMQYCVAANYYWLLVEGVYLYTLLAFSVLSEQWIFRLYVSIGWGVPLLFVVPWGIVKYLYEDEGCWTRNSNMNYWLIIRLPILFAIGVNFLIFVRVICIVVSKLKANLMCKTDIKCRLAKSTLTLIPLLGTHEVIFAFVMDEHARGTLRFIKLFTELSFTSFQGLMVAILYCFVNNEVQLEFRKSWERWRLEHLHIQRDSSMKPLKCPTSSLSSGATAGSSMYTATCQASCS
Chain of human glucagon receptor (hGCGR) (P47871 26-477): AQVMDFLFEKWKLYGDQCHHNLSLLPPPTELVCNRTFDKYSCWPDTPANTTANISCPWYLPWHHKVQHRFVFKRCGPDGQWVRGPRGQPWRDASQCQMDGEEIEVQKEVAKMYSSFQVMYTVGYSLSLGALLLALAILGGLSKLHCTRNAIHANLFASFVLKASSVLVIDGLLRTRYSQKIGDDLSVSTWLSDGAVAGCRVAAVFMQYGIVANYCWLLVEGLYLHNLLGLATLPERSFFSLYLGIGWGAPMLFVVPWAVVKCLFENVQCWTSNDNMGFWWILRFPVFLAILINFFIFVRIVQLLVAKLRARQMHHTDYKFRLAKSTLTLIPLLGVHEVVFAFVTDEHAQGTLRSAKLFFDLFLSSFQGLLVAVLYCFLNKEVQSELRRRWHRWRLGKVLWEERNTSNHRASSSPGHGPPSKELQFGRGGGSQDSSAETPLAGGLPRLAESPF

What is called pEC50 is −log10 of the EC50, conventionally taken in molar units. Consider `CC(C)C[C@H](NC(=O)[C@H](Cc1c[nH]c2ccccc12)NC(=O)[C@H](CCCNC(=N)N)NC(=O)[C@@H](NC(=O)[C@H](Cc1ccccc1)NC(=O)[C@H](CC(=O)O)NC(=O)[C@H](CCC(N)=O)NC(=O)[C@H](C)NC(=O)[C@H](CCCNC(=N)N)NC(=O)[C@H](CCCCNC(=O)COCCOCCNC(=O)COCCOCCNC(=O)CC[C@H](NC(=O)CCCCCCCCCCCCCCCCC(=O)O)C(=O)O)NC(=O)[C@H](CO)NC(=O)[C@H](CC(=O)O)NC(=O)[C@H](CC(C)C)NC(=O)[C@](C)(Cc1ccccc1)NC(=O)[C@H](CCCCN)NC(=O)[C@H](CO)NC(=O)[C@@H](NC(=O)[C@H](CC(=O)O)NC(=O)[C@H](CO)NC(=O)[C@@H](NC(=O)[C@H](Cc1ccccc1)NC(=O)[C@@H](NC(=O)CNC(=O)[C@H](CCC(N)=O)NC(=O)C(C)(C)NC(=O)[C@@H](N)Cc1c[nH]cn1)[C@@H](C)O)[C@@H](C)O)C(C)C)C(C)C)C(=O)N[C@@H](CC(C)C)C(=O)N[C@@H](CCC(=O)O)C(=O)NC(C)(C)C(=O)N[C@@H](C)C(=O)O` [Peptide 163] (H-H[Aib]QGTFTSDVSK[αMeF]LDSK([AEEA-AEEA-γGlu-C18 diacid])RAQDFVRWLLE[Aib]A-OH; N-terminus assumed), for which the pEC50 in experiment [1] (setting [3]) was 9.84; in experiment [2] (setting [3]), 10.05. In experiment [2] (Table 6), the “% Relative Potency Ratio” value stood at 3.2.

Turning to `CC[C@H](C)[C@H](NC(=O)C(C)(C)NC(=O)[C@H](CCC(=O)O)NC(=O)[C@@H](NC(=O)[C@](C)(Cc1ccccc1)NC(=O)[C@H](CC(=O)O)NC(=O)[C@H](CCCCNC(=O)COCCOCCNC(=O)COCCOCCNC(=O)CC[C@H](NC(=O)CC[C@H](NC(=O)CCCCCCCCCCCCCCCCCCC(=O)O)C(=O)O)C(=O)O)NC(=O)[C@H](C)NC(=O)[C@H](C)NC(=O)[C@H](CCCNC(=N)N)NC(=O)[C@H](CO)NC(=O)[C@H](CC(=O)O)NC(=O)[C@H](CC(C)C)NC(=O)[C@](C)(Cc1ccccc1)NC(=O)[C@H](CCCCN)NC(=O)[C@H](CO)NC(=O)[C@@H](NC(=O)[C@H](CC(=O)O)NC(=O)[C@H](CO)NC(=O)[C@@H](NC(=O)[C@](C)(Cc1ccccc1)NC(=O)[C@H](CO)NC(=O)CNC(=O)[C@H](Cc1c[nH]cn1)NC(=O)C(C)(C)NC(=O)[C@@H](N)Cc1c[nH]cn1)[C@@H](C)O)C(C)C)C(C)C)C(=O)N[C@@H](C)C(=O)N[C@@H](CC(N)=O)C(=O)N[C@H](C(N)=O)[C@@H](C)O` [Peptide 233] (H-H[Aib]HGS[αMeF]TSDVSK[αMeF]LDSRAAK([AEEA-AEEA-γGlu-γGlu-C20 diacid])D[αMeF]VE[Aib]IANT-NH2; N-terminus assumed), the pEC50 is 9.39 in experiment [1] (setting [4]) and 9.36 in experiment [2] (setting [4]). The “% Relative Potency Ratio” value in experiment [2] (Table 7) was 1.8.

For `CCCCCCCCCCCCCCCC(=O)N[C@@H](CCC(=O)N[C@@H](CCC(=O)NCCOCCOCCC(=O)NCCOCCOCCC(=O)NCCCC[C@H](NC(=O)[C@H](CO)NC(=O)[C@H](CC(=O)O)NC(=O)[C@H](CC(C)C)NC(=O)[C@](C)(Cc1ccccc1)NC(=O)[C@H](CCCCN)NC(=O)[C@H](CO)NC(=O)[C@@H](NC(=O)[C@H](CC(=O)O)NC(=O)[C@H](CO)NC(=O)[C@@H](NC(=O)[C@](C)(Cc1ccccc1)NC(=O)[C@H](CO)NC(=O)CNC(=O)[C@H](CCC(N)=O)NC(=O)[C@H](CO)NC(=O)[C@@H](N)Cc1c[nH]cn1)[C@@H](C)O)C(C)C)C(=O)N[C@@H](C)C(=O)N[C@@H](C)C(=O)N[C@@H](CCC(N)=O)C(=O)N[C@@H](CC(=O)O)C(=O)N[C@@](C)(Cc1ccccc1)C(=O)N[C@H](C(=O)N[C@@H](CCC(=O)O)C(=O)NC(C)(C)C(=O)N[C@H](C(=O)N[C@@H](C)C(=O)N[C@@H](CC(N)=O)C(N)=O)[C@@H](C)CC)C(C)C)C(=O)O)C(=O)O` [Peptide 90] (H-HSQGS[αMeF]TSDVSK[αMeF]LDSK([PEG2-PEG2-γGlu-γGlu-Palmitoyl])AAQD[αMeF]VE[Aib]IAN-NH2; N-terminus assumed), the pEC50 in experiment [1] (setting [3]) is 11.18; in experiment [2] (setting [3]), 11.73. Further, in experiment [2] (Table 6), the “% Relative Potency Ratio” value stood at 7.0.

Consider `CC[C@H](C)[C@H](NC(=O)C(C)(C)NC(=O)[C@H](CCC(N)=O)NC(=O)[C@@H](NC(=O)[C@H](Cc1ccccc1)NC(=O)[C@H](CC(=O)O)NC(=O)[C@H](CCCCNC(=O)COCCOCCNC(=O)COCCOCCNC(=O)CC[C@H](NC(=O)CCCCCCCCCCCCCCCCC(=O)O)C(=O)O)NC(=O)[C@H](C)NC(=O)[C@H](C)NC(=O)[C@H](CCC(N)=O)NC(=O)[C@H](CO)NC(=O)[C@H](CC(=O)O)NC(=O)[C@H](CC(C)C)NC(=O)[C@](C)(Cc1ccccc1)NC(=O)[C@H](CCCCN)NC(=O)[C@H](CO)NC(=O)[C@@H](NC(=O)[C@H](CC(=O)O)NC(=O)[C@H](CO)NC(=O)[C@@H](NC(=O)[C@](C)(Cc1ccccc1)NC(=O)[C@H](CO)NC(=O)CNC(=O)[C@H](Cc1c[nH]cn1)NC(=O)C(C)(C)NC(=O)[C@@H](N)Cc1c[nH]cn1)[C@@H](C)O)C(C)C)C(C)C)C(=O)N[C@@H](C)C(=O)N[C@@H](CC(N)=O)C(=O)N[C@H](C(N)=O)[C@@H](C)O` [Peptide 207] (H-H[Aib]HGS[αMeF]TSDVSK[αMeF]LDSQAAK([AEEA-AEEA-γGlu-C18 diacid])DFVQ[Aib]IANT-NH2), for which the results for the pEC50 in experiment [1] (setting [4]) and in experiment [2] (setting [4]) were 10.02 and 9.75, respectively. Also, the “% Relative Potency Ratio” value in experiment [2] (Table 7) came to 1.1.

As for `CC[C@H](C)[C@H](NC(=O)C(C)(C)NC(=O)[C@H](CCC(N)=O)NC(=O)[C@@H](NC(=O)[C@](C)(Cc1ccccc1)NC(=O)[C@H](CC(=O)O)NC(=O)[C@H](CCC(N)=O)NC(=O)[C@H](C)NC(=O)[C@H](C)NC(=O)[C@H](CCCCNC(=O)COCCOCCNC(=O)COCCOCCNC(=O)CC[C@H](NC(=O)CCCCCCCCCCCCCCCCC(=O)O)C(=O)O)NC(=O)[C@H](CO)NC(=O)[C@H](CC(=O)O)NC(=O)[C@H](CC(C)C)NC(=O)C(C)(C)NC(=O)[C@H](CCCCNC(C)=O)NC(=O)[C@H](CO)NC(=O)[C@@H](NC(=O)[C@H](CC(=O)O)NC(=O)[C@H](CO)NC(=O)[C@@H](NC(=O)[C@](C)(Cc1ccccc1)NC(=O)[C@H](CO)NC(=O)CNC(=O)[C@H](CCC(N)=O)NC(=O)[C@H](CO)NC(=O)[C@@H](N)Cc1c[nH]cn1)[C@@H](C)O)C(C)C)C(C)C)C(=O)N[C@@H](C)C(=O)N[C@@H](CC(N)=O)C(N)=O` [Peptide 109] (H-HSQGS[αMeF]TSDVSK(Ac)[Aib]LDSK([AEEA-AEEA-γGlu-C18 diacid])AAQD[αMeF]VQ[Aib]IAN-NH2; N-terminus assumed), the pEC50 in experiment [1] (setting [3]) is under 7.57; in experiment [2] (setting [3]), 9.16.

Consider `CCCCCCCCCCCCCCCCCC(=O)N[C@@H](CCC(=O)N[C@@H](CCC(=O)NCCOCCOCCC(=O)NCCOCCOCCC(=O)NCCCC[C@H](NC(=O)[C@H](CO)NC(=O)[C@H](CC(=O)O)NC(=O)[C@H](CC(C)C)NC(=O)[C@](C)(Cc1ccccc1)NC(=O)[C@H](CCCCN)NC(=O)[C@H](CO)NC(=O)[C@@H](NC(=O)[C@H](CC(=O)O)NC(=O)[C@H](CO)NC(=O)[C@@H](NC(=O)[C@](C)(Cc1ccccc1)NC(=O)[C@H](CO)NC(=O)CNC(=O)[C@H](CCC(N)=O)NC(=O)[C@H](CO)NC(=O)[C@@H](N)Cc1c[nH]cn1)[C@@H](C)O)C(C)C)C(=O)N[C@@H](C)C(=O)N[C@@H](C)C(=O)N[C@@H](CCC(N)=O)C(=O)N[C@@H](CC(=O)O)C(=O)N[C@@](C)(Cc1ccccc1)C(=O)N[C@H](C(=O)N[C@@H](CCC(N)=O)C(=O)NC(C)(C)C(=O)N[C@@H](CC(C)C)C(=O)N[C@@H](CC(C)C)C(=O)N[C@@H](CC(N)=O)C(=O)N[C@H](C(N)=O)[C@@H](C)O)C(C)C)C(=O)O)C(=O)O` [Peptide 84] (H-HSQGS[αMeF]TSDVSK[αMeF]LDSK([PEG2-PEG2-γGlu-γGlu-Stearoyl])AAQD[αMeF]VQ[Aib]LLNT-NH2), for which the negative logarithm of the EC50 (pEC50) is 10.35 in experiment [1] (setting [3]) and 11.55 in experiment [2] (setting [3]). In addition, in experiment [2] (Table 6), the “% Relative Potency Ratio” value turned out to be 31.7.

The values above are taken from patent US20250353891A1 (MEDIMMUNE LIMITED, priority 2022, published 2025).
